Laboratory results from patent publication US20230089073A1 (Carmot Therapeutics, Inc., priority 2021, published 2023).

Target: T1, human GLP-1 receptor (Homo sapiens, UniProt P43220)
T1 construct: expressed in transfected cells
Experiment: GLP-1R cAMP Assay
Type: cell-based
Conditions: cAMP accumulation in CHO cells stably overexpressing the human GLP-1 receptor; 30 min treatment; HitHunter cAMP kit; read-out: EC50
Summary of the method: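 CHO cells stably overexpressing human GLP-1R, 10,000 cells/well, treated with compound in 20-point dose response in triplicate for 30 min. cAMP accumulation read by enzyme-complementation luminescence after lysis and overnight incubation; dose-response curves fitted.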

T1 sequence (P43220 24-463): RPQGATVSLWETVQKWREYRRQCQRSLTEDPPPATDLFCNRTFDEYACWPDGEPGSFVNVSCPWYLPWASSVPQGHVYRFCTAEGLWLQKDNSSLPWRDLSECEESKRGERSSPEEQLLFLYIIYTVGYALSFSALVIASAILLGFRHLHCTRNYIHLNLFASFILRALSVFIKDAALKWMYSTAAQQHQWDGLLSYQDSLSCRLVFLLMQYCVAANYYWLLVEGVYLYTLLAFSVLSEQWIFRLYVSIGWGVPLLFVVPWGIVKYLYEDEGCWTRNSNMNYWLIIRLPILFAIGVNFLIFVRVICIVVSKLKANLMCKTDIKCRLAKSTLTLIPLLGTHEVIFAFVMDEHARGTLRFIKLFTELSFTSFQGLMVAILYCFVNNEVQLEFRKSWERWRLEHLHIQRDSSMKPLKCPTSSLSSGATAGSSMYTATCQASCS

O=C(O)c1ccc2nc(CN3CCC(Oc4cccc(COc5ccc(Cl)cc5Cl)c4)CC3)n(Cc3ccno3)c2c1 [Example 208, 2-((4-(3-((2,4-Dichlorophenoxy)methyl)phenoxy)piperidin-1-yl)methyl)-1-(isoxazol-5-ylmethyl)-1H-benzo[d]imidazole-6-carboxylic acid]
EC50: < 50 nM

O=C(O)c1ccc2nc(CN3CCC(Oc4ccnc(COc5ccc(F)cc5C(F)F)c4)CC3)n(C[C@@H]3CCO3)c2c1 [Compound 357]
EC50: < 50 nM

C[C@H]1C[C@H](Oc2ccnc(COc3ccc(Cl)cc3Cl)c2)CCN1Cc1nc2ccc(C(=O)O)cc2n1C[C@@H]1CCO1 [Compound 295, 2-{[(2S,4R)-4-({2-[(2,4-dichlorophenoxy)methyl]pyridin-4-yl}oxy)-2-methylpiperidin-1-yl]methyl}-1-{[(2S)-oxetan-2-yl]methyl}-1H-1,3-benzodiazole-6-carboxylic acid]
EC50: < 50 nM

CCn1cncc1Cn1c(CN2CCC([C@@H](F)c3cccc(COc4ccc(Cl)cc4Cl)c3)CC2)nc2ccc(C(=O)O)cc21 (single isomer, unassigned) [Compound 203]
EC50: < 50 nM

C[C@H]1C[C@@H](Oc2nc(COc3ccc(C#N)cc3F)ncc2F)CCN1Cc1nc2ccc(C(=O)O)cc2n1C[C@@H]1CCO1 [Compound 493, 2-{[(2S,4S)-4-({2-[(4-cyano-2-fluorophenoxy)methyl]-5-fluoropyrimidin-4-yl}oxy)-2-methylpiperidin-1-yl]methyl}-1-{[(2S)-oxetan-2-yl]methyl}-1H-1,3-benzodiazole-6-carboxylic acid]
EC50: < 50 nM

CCn1cncc1Cn1c(CN2CCC(Oc3ccccc3COc3ccc(Cl)cc3Cl)CC2)nc2ccc(C(=O)O)cc21 [Compound 272, 2-[(4-{2-[(2,4-dichlorophenoxy)methyl]phenoxy}piperidin-1-yl)methyl]-1-[(1-ethyl-1H-imidazol-5-yl)methyl]-1H-1,3-benzodiazole-6-carboxylic acid]
EC50: 50 to 500 nM

Cc1ccc(N(C)c2cccc(C3(N4CCN(Cc5nc6ccc(C(=O)O)cc6n5C[C@@H]5CCO5)CC4)CC3)c2)c(Cl)c1 [Example 105, (S)-2-((4-(1-(3-((2-chloro-4-methylphenyl)(methyl)amino)phenyl)cyclopropyl)piperazin-1-yl)methyl)-1-(oxetan-2-ylmethyl)-1H-benzo[d]imidazole-6-carboxylic acid]
EC50: > 500 nM

O=C(O)c1ccc2nc(CN3CCC(Oc4cccc(COc5ccc(Cl)cc5Cl)c4)CC3)n(Cc3ncco3)c2c1 [Compound 217, 2-[(4-{3-[(2,4-dichlorophenoxy)methyl]phenoxy}piperidin-1-yl)methyl]-1-[(1,3-oxazol-2-yl)methyl]-1H-1,3-benzodiazole-6-carboxylic acid]
EC50: < 50 nM

CN(C)c1cc(C(=O)N2CCN(Cc3nc4ccc(C(=O)O)cc4n3C[C@@H]3CCO3)CC2)ncn1 [Example 1, (S)-2-((4-(6-(Dimethylamino)pyrimidine-4-carbonyl)piperazin-1-yl)methyl)-1-(oxetan-2-ylmethyl)-1H-benzo[d]imidazole-6-carboxylic acid]
EC50: 50 to 500 nM

N#Cc1ccc(OCc2ncc(F)c(OC3CCN(Cc4nc5ccc(C(=O)O)cc5n4C[C@@H]4CCO4)CC3)n2)c(F)c1 [Compound 374]
EC50: < 50 nM

CCn1cncc1Cn1c(CN2CC[C@@H](Cc3cnc(COc4ccc(Cl)cc4Cl)o3)C[C@@H]2C)nc2ccc(C(=O)O)cc21 [Compound 278, 2-{[(2S,4R)-4-({2-[(2,4-dichlorophenoxy)methyl]-1,3-oxazol-5-yl}methyl)-2-methylpiperidin-1-yl]methyl}-1-[(1-ethyl-1H-imidazol-5-yl)methyl]-1H-1,3-benzodiazole-6-carboxylic acid]
EC50: < 50 nM

Cc1ccc(Oc2cccc(C(=O)N3CCN(Cc4nc5ccc(C(=O)O)cc5n4C[C@@H]4CCO4)CC3)c2)c(Cl)c1 [Compound 15, 2-({4-[3-(2-chloro-4-methylphenoxy)benzoyl]piperazin-1-yl}methyl)-1-{[(2S)-oxetan-2-yl]methyl}-1H-1,3-benzodiazole-6-carboxylic acid]
EC50: 50 to 500 nM

O=C(O)c1ccc2nc(CN3CCC(Oc4ccnc(COc5ncc(Cl)cc5F)c4)CC3)n(C[C@@H]3CCO3)c2c1 [Compound 308]
EC50: < 50 nM

CCn1cncc1Cn1c(CN2CCN(C(=O)c3ccc(COc4ccc(C)cc4C)o3)CC2)nc2ccc(C(=O)O)cc21 [Compound 55, 2-[(4-{5-[(2,4-dimethylphenoxy)methyl]furan-2-carbonyl}piperazin-1-yl)methyl]-1-[(1-ethyl-1H-imidazol-5-yl)methyl]-1H-1,3-benzodiazole-6-carboxylic acid]
EC50: < 50 nM

N#Cc1ccc(OCc2ccc(F)c(OC3CCN(Cc4nc5ccc(C(=O)O)cc5n4C[C@@H]4CCO4)CC3)n2)c(F)c1 [Example 330, (S)-2-((4-((6-((4-Cyano-2-fluorophenoxy)methyl)-3-fluoropyridin-2-yl)oxy)piperidin-1-yl)methyl)-1-(oxetan-2-ylmethyl)-1H-benzo[d]imidazole-6-carboxylic acid]
EC50: < 50 nM

Cc1ccc2oc3cc(C(=O)N4CCN(Cc5nc6ccc(C(=O)O)cc6n5C[C@@H]5CCO5)CC4)ccc3c(=O)c2c1 [Example 44, (S)-2-((4-(7-Methyl-9-oxo-9H-xanthene-3-carbonyl)piperazin-1-yl)methyl)-1-(oxetan-2-ylmethyl)-1H-benzo[d]imidazole-6-carboxylic acid]
EC50: 50 to 500 nM

O=C(O)c1ccc2nc(CN3CCC(Oc4ccnc(COc5ccc(Cl)cc5F)n4)CC3)n(C[C@@H]3CCO3)c2c1 [Compound 296, 2-{[4-({2-[(4-chloro-2-fluorophenoxy)methyl]pyrimidin-4-yl}oxy)piperidin-1-yl]methyl}-1-{[(2S)-oxetan-2-yl]methyl}-1H-1,3-benzodiazole-6-carboxylic acid]
EC50: < 50 nM

Cc1ccc(N(C)Cc2cccc(C(=O)N3CCN(Cc4nc5ccc(C(=O)O)cc5n4C[C@@H]4CCO4)CC3)c2)c(Cl)c1 [Example 78, (S)-2-((4-(3-(((2-Chloro-4-methylphenyl)(methyl)amino)methyl)benzoyl)piperazin-1-yl)methyl)-1-(oxetan-2-ylmethyl)-1H-benzo[d]imidazole-6-carboxylic acid]
EC50: > 500 nM

O=C(O)c1ccc2nc(CN3CCN(C(=O)c4ccc(COc5ccc(C6CC6)cc5Cl)o4)CC3)n(C[C@@H]3CCO3)c2c1 [Compound 81, 2-[(4-{5-[(2-chloro-4-cyclopropylphenoxy)methyl]furan-2-carbonyl}piperazin-1-yl)methyl]-1-{[(2S)-oxetan-2-yl]methyl}-1H-1,3-benzodiazole-6-carboxylic acid]
EC50: 50 to 500 nM

O=C(O)c1ccc2nc(CN3CCC(Oc4cccc(COc5ccc(Cl)cc5Cl)n4)CC3)n(C[C@@H]3CCO3)c2c1 [Example 198, (S)-2-((4-((6-((2,4-Dichlorophenoxy)methyl)pyridin-2-yl)oxy)piperidin-1-yl)methyl)-1-(oxetan-2-ylmethyl)-1H-benzo[d]imidazole-6-carboxylic acid]
EC50: < 50 nM

O=C(O)c1cc(F)c2nc(CN3CCC(Oc4ccnc(COc5cc(F)c(F)cc5F)n4)CC3)n(C[C@@H]3CCO3)c2c1 [Compound 494, 4-fluoro-1-{[(2S)-oxetan-2-yl]methyl}-2-{[4-({2-[(2,4,5-trifluorophenoxy)methyl]pyrimidin-4-yl}oxy)piperidin-1-yl]methyl}-1H-1,3-benzodiazole-6-carboxylic acid]
EC50: < 50 nM

N#CCC1(Cn2c(CN3CCC(Oc4ccnc(COc5ccc(Cl)cc5F)c4)CC3)nc3ccc(C(=O)O)cc32)CC1 [Compound 337]
EC50: < 50 nM

O=C(O)c1ccc2nc(CN3CCC(Oc4cccc(OCc5ccc(F)cc5Cl)c4)CC3)n(C[C@@H]3CCO3)c2c1 [Compound 207]
EC50: < 50 nM

Cc1ccccc1Oc1cccc(C(=O)N2CCN(Cc3nc4ccc(C(=O)O)cc4n3C[C@@H]3CCO3)CC2)c1 [Example 14, (S)-1-(Oxetan-2-ylmethyl)-2-((4-(3-(o-tolyloxy)benzoyl)piperazin-1-yl)methyl)-1H-benzo[d]imidazole-6-carboxylic acid]
EC50: > 500 nM

N#Cc1ccc(OCc2nc(OC3CCN(Cc4nc5ccc(C(=O)O)cc5n4C[C@@H]4CCO4)CC3)ccc2F)c(F)c1 [Compound 347]
EC50: < 50 nM

C[C@H]1C[C@@H](Oc2ccnc(COc3ccc(F)cc3C#N)n2)CCN1Cc1nc2ccc(C(=O)O)cc2n1CC1(CC#N)CC1 [Compound 353]
EC50: < 50 nM

CCn1cncc1Cn1c(CN2CCC(Cc3cc(COc4ccc(Cl)cc4Cl)ccc3F)CC2)nc2ccc(C(=O)O)cc21 [Compound 137, 2-{[4-({5-[(2,4-dichlorophenoxy)methyl]-2-fluorophenyl}methyl)piperidin-1-yl]methyl}-1-[(1-ethyl-1H-imidazol-5-yl)methyl]-1H-1,3-benzodiazole-6-carboxylic acid]
EC50: < 50 nM

Cc1ccc(Nc2cccc(C(=O)N3CCN(Cc4nc5ccc(C(=O)O)cc5n4C[C@@H]4CCO4)CC3)c2)c(Cl)c1 [Compound 50, 2-[(4-{3-[(2-chloro-4-methylphenyl)amino]benzoyl}piperazin-1-yl)methyl]-1-{[(2S)-oxetan-2-yl]methyl}-1H-1,3-benzodiazole-6-carboxylic acid]
EC50: > 500 nM

Cc1ccc(N(C)c2cccc(C(=O)N3CCN(Cc4nc5ccc(C(=O)O)cc5n4C[C@@H]4CCO4)CC3)c2)c(C)c1 [Compound 45, 2-[(4-{3-[(2,4-dimethylphenyl)(methyl)amino]benzoyl}piperazin-1-yl)methyl]-1-{[(2S)-oxetan-2-yl]methyl}-1H-1,3-benzodiazole-6-carboxylic acid]
EC50: < 50 nM

O=C(O)c1cc(F)c2nc(CN3CCC(Oc4ccnc(COc5ccc(F)cc5Cl)n4)CC3)n(CC3(CF)CC3)c2c1 [Compound 327]
EC50: < 50 nM

N#CCC1(Cn2c(CN3CCC(Oc4ccnc(COc5ccc(F)cc5C#N)n4)CC3)nc3c(F)cc(C(=O)O)cc32)CC1 [Compound 349]
EC50: < 50 nM
